Experimental data published in PMC4774911, “Biochemical Screening of Five Protein Kinases from Plasmodium falciparum against 14,000 Cell-Active Compounds” (PLoS ONE, 2016).
Several values for one entry are separate records, joined by “and”; a condition that tells them apart may be missing. Equal entries are not always repeated.

Tests used:
Experiment in all cases: biochemical
Parameters in all cases: endogenous in cells; host or cells: K562 cell extract; species or system K562 (extract); replicate k of n = 2 (each experiment ID is one independent experiment; two experiment IDs per compound)
Details in all cases: read-out: KDapp
FER = FER (Homo sapiens, UniProt P16591)
Chain of FER (P16591 whole entry): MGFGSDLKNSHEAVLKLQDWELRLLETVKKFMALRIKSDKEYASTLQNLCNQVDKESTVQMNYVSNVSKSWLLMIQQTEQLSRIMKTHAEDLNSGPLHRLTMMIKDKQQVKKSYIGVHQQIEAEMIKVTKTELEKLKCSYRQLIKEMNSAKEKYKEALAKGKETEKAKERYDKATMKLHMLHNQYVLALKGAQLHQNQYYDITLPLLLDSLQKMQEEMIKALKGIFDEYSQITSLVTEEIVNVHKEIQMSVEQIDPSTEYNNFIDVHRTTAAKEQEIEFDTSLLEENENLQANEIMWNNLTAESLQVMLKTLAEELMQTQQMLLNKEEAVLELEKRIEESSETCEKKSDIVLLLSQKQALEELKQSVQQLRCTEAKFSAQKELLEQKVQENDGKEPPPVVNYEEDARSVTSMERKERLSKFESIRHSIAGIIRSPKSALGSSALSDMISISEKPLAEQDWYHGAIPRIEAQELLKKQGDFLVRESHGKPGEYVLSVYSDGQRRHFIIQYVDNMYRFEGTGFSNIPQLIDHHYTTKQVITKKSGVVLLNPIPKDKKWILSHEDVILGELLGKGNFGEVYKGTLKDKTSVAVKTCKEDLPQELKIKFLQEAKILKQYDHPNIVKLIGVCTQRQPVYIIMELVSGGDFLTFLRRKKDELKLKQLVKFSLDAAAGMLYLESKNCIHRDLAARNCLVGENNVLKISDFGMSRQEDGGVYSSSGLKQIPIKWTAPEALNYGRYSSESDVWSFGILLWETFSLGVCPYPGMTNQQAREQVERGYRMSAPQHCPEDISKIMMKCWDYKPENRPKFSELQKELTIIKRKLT

FYN = FYN (Homo sapiens, UniProt P06241)
Chain of FYN (P06241 whole entry): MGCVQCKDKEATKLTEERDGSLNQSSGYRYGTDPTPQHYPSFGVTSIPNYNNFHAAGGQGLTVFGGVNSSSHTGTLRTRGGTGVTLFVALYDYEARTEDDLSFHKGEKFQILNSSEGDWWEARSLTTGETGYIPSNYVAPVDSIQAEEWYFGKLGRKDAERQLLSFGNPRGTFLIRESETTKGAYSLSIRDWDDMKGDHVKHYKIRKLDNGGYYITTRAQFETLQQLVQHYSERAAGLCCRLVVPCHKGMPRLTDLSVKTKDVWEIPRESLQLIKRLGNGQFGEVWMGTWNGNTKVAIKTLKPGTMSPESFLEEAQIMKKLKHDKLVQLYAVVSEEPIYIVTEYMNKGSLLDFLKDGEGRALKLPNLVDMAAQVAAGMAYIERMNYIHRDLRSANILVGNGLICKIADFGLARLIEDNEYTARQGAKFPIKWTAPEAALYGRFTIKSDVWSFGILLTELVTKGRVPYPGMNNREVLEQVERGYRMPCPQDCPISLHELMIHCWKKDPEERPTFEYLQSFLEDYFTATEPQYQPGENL

SLK = SLK (Homo sapiens, UniProt Q9H2G2)
Chain of SLK (Q9H2G2 whole entry): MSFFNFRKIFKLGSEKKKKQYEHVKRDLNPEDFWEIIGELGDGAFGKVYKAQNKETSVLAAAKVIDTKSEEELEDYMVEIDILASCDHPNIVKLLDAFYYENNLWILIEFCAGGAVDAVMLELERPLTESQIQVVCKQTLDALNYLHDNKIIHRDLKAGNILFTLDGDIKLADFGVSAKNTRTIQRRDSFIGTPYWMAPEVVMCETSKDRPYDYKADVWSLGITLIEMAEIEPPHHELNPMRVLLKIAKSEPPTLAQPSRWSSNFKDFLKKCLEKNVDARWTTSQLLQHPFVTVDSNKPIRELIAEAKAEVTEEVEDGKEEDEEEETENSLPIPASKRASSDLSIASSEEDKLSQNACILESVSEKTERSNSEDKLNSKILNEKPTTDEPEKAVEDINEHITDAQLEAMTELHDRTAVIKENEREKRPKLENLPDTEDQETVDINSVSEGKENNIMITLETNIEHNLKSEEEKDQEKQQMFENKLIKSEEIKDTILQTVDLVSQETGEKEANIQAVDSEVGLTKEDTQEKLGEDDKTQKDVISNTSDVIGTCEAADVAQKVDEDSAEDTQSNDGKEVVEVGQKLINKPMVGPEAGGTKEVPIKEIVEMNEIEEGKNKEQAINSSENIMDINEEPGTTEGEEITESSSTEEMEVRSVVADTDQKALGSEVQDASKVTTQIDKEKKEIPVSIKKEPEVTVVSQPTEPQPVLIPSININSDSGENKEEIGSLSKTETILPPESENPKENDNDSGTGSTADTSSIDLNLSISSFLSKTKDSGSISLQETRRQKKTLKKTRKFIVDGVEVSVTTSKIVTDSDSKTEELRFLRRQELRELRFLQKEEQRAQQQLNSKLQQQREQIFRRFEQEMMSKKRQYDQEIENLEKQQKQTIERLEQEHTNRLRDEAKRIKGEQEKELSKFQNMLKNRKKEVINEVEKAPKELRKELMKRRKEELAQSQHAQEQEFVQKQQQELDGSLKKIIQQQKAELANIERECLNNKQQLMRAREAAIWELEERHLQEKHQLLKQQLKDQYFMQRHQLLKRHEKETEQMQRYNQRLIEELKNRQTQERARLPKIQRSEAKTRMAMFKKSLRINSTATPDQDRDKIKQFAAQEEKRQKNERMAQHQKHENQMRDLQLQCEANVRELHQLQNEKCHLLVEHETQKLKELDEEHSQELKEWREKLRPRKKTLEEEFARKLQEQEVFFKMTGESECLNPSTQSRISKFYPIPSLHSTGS

CRKRS = CRKRS (Homo sapiens, UniProt Q9NYV4)
GSK3A = GSK3A (Homo sapiens, UniProt P49840)
Chain of GSK3A (P49840 whole entry): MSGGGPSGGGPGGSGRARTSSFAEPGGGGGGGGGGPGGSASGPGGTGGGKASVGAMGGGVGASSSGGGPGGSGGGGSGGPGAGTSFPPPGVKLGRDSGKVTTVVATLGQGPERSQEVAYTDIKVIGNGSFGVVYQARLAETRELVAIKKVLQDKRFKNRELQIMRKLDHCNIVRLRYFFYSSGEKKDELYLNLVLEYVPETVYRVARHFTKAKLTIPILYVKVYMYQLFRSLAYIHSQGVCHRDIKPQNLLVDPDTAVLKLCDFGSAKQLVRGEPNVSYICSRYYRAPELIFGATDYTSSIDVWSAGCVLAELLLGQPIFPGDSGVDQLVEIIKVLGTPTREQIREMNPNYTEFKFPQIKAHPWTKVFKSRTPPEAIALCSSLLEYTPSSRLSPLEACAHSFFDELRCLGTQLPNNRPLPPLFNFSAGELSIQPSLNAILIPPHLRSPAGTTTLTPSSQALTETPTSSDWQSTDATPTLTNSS

STK16 = STK16 (Homo sapiens, UniProt O75716)
Chain of STK16 (O75716 whole entry): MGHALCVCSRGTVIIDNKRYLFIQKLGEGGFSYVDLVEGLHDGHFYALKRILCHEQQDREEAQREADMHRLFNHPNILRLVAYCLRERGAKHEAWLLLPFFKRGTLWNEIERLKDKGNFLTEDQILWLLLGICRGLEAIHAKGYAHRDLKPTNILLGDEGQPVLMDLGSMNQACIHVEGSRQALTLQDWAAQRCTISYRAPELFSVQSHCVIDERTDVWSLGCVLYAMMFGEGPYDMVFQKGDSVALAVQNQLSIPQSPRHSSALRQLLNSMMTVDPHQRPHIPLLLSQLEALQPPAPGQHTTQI

ACVR1B = biological target: T1, ACVR1B (Homo sapiens, UniProt P36896)
T1 sequence (P36896 1-505): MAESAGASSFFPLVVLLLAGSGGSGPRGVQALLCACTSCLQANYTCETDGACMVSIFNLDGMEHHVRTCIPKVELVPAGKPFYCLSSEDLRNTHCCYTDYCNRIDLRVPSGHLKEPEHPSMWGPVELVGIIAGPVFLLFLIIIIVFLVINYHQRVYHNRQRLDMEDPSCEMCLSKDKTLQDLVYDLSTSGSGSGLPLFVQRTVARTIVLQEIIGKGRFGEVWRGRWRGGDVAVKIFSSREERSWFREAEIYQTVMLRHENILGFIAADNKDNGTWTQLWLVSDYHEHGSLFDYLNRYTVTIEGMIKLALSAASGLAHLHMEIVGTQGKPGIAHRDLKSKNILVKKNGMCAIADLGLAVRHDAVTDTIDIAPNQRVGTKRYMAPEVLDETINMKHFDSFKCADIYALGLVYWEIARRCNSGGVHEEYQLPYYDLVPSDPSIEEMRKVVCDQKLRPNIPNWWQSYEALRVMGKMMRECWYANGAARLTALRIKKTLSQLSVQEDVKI

PRKAA1 = PRKAA1 (Homo sapiens, UniProt Q13131)
Chain of PRKAA1 (Q13131 whole entry): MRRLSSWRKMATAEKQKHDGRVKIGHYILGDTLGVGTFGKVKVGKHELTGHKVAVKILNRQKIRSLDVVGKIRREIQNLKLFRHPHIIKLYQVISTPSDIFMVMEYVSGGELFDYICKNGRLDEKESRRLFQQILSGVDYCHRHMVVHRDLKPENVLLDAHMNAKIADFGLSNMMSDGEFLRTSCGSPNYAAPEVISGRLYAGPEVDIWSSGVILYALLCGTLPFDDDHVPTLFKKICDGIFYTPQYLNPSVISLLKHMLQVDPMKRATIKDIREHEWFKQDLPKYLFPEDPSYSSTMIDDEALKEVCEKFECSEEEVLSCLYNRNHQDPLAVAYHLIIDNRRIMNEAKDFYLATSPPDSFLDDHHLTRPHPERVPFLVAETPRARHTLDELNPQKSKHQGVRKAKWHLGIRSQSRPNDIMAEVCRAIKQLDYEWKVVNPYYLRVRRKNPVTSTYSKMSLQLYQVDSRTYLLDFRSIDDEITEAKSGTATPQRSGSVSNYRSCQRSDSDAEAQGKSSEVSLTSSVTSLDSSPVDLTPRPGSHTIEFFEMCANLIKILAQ

LATS1 = biological target: T2, LATS1 (Homo sapiens, UniProt O95835)
T2 sequence (O95835 1-1130): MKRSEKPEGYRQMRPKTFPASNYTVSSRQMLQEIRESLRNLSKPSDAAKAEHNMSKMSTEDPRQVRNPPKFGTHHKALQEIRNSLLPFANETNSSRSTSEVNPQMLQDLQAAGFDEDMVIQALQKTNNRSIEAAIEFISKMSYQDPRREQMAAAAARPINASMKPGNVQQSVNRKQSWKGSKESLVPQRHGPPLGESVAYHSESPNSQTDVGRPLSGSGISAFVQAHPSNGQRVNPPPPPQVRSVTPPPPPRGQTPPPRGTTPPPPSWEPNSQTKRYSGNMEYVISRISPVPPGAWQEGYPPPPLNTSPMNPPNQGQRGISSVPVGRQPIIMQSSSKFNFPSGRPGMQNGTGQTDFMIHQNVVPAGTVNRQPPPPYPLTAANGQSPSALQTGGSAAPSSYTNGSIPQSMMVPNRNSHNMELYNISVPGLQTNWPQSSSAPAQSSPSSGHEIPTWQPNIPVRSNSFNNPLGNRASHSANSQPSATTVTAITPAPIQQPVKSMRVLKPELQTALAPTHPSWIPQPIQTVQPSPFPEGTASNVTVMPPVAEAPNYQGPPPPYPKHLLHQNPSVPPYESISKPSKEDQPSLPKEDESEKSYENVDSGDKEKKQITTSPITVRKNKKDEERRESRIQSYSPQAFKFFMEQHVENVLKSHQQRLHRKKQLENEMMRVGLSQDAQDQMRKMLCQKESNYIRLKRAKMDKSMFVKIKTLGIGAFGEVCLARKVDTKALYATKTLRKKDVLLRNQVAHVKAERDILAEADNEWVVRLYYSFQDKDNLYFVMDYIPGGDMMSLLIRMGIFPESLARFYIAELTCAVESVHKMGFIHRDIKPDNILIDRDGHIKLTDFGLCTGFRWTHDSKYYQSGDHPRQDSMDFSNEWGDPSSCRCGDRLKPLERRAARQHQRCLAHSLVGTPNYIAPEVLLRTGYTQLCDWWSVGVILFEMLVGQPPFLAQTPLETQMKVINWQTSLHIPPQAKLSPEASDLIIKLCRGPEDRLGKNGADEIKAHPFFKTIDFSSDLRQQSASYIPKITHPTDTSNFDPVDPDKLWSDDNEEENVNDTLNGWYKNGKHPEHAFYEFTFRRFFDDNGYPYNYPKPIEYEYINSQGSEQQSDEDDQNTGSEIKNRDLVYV

| Compound | Kd (FER) | Kd (FYN) | Kd (SLK) | Kd (CRKRS) | Kd (GSK3A) | Kd (STK16) | Kd (ACVR1B) | Kd (PRKAA1) | Kd (LATS1) |
| --- | --- | --- | --- | --- | --- | --- | --- | --- | --- |
| CN1CCN(c2ccc(Nc3ncc(C#N)c(Nc4ccccc4C(N)=O)n3)cc2)CC1.Cl [TCMDC-134116] | 79.3 nM and 75.7 nM | 107 nM and 85.4 nM | 28.5 nM and 33.8 nM | 507 nM | 470 nM and 369 nM | 135 nM and 190 nM | 1630 nM | 14.1 nM and 18.2 nM | 174 nM |
| Cl.NCC1(c2nc(-c3ccc(Cl)c(O)c3)c(-c3ccncc3)[nH]2)CCCCC1 [TCMDC-141154] |  | 67.6 nM and 60.5 nM |  |  |  |  | 240 nM |  | 911 nM |
| CN(C)CC(O)COc1ccc(Nc2ncc([N+](=O)[O-])c(Nc3ccccc3O)n2)cc1.O=C(O)C(F)(F)F (stereo not drawn) [TCMDC-141399] | 335 nM and 292 nM |  | 528 nM and 593 nM | 1640 nM | 2250 nM and 2480 nM | 551 nM |  | 2630 nM and 2850 nM |  |
